According to US8163771B2, “11 β-HSD1 modulators” (Exelixis, Inc., priority 2008, dated 2012):

These compounds were tested against T1, recombinant human 11 β-HSD1 (Homo sapiens, UniProt P28845) (assay: 11 β-HSD1 SPA Assay (Scintillation Proximity Assay)).
T1 construct: made in house; host or cells: E. coli
T1 sequence (P28845 whole entry): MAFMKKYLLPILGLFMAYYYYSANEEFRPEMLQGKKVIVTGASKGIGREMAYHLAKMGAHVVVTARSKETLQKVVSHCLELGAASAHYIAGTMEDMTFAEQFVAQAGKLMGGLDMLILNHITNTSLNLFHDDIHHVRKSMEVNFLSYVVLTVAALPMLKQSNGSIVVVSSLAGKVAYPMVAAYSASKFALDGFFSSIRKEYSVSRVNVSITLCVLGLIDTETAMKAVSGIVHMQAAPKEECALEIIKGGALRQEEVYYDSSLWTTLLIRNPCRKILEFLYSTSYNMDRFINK
Assay type: biochemical
How it was run: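 Scintillation proximity read-out of cortisol formed from 40 nM [3H]cortisone by purified recombinant human enzyme (30-100 nM, E. coli) with 1 mM NADPH, pH7.4, 2 hours at room temperature; beads with cortisol antibody and glycyrrhetinic acid stop the reaction, read next day. IC50 derived from inhibition normalised to background and maximal wells.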
For `CC(C)c1cc(Cl)ccc1OC(C)(C)C(=O)N[C@H]1C[C@H]2CC[C@@H](C1)N2c1ccc(C(=O)NCC(F)(F)F)cn1` [Example 353, 6-[3-endo-({2-[4-chloro-2-(propan-2-yl)phenoxy]-2-methylpropanoyl}amino)-8-azabicyclo[3.2.1]oct-8-yl]-N-(2,2,2-trifluoroethyl)pyridine-3-carboxamide], the IC50 was less than 200 nM.
`CC(C)(Oc1ncc(Cl)cc1F)C(=O)N[C@H]1C[C@H]2CC[C@@H](C1)N2c1ccc(S(N)(=O)=O)cn1` [Example 247, N-{8-[5-(aminosulfonyl)pyridin-2-yl]-8-azabicyclo[3.2.1]oct-3-endo-yl}-2-[(5-chloro-3-fluoropyridin-2-yl)oxy]-2-methylpropanamide] gave an IC50 of less than 2000 nM.
In the case of `C[C@H](NC(=O)c1ccc(N2C3CCC2CC(NC(=O)C(C)(C)Oc2ccc(Cl)cc2OC(F)(F)F)C3)nc1)C(F)(F)F` (stereo partly drawn) [Example 410, 6-(3-endo-(2-(4-chloro-2-(trifluoromethoxy)phenoxy)-2-methylpropanamido)-8-azabicyclo[3.2.1]octan-8-yl)-N-((S)-1,1,1-trifluoropropan-2-yl)nicotinamide], the IC50 is reported as less than 200 nM.
`O=C(NC1CC1)c1ccc(N2[C@@H]3CC[C@H]2C[C@@H](NC(=O)C2(c4ccc(Cl)cc4)CC2)C3)cc1F` [Example 119, 4-[3-endo-({[1-(4-chlorophenyl)cyclopropyl]carbonyl}amino)-8-azabicyclo[3.2.1]oct-8-yl]-N-cyclopropyl-2-fluorobenzamide] gave an IC50 of less than 200 nM.
`CC(C)(Oc1ccc(Cl)cc1F)C(=O)N[C@H]1C[C@H]2CC[C@@H](C1)N2c1ccc(S(C)(=O)=O)cc1` [Example 223, 2-[(4-chloro-2-fluorophenyl)oxy]-2-methyl-N-{8-[4-(methylsulfonyl)phenyl]-8-azabicyclo[3.2.1]oct-3-endo-yl}propanamide] was tested, and the IC50 was less than 200 nM.
In the case of `CC(C)(Oc1ccc(F)c(C(F)(F)F)c1)C(=O)N[C@H]1C[C@H]2CC[C@@H](C1)N2c1ccc(S(C)(=O)=O)cn1` [Example 272, 2-{[4-fluoro-3-(trifluoromethyl)phenyl]oxy}-2-methyl-N-{8-[5-(methylsulfonyl)pyridin-2-yl]-8-azabicyclo[3.2.1]oct-3-endo-yl}propanamide], the IC50 is reported as less than 2000 nM.
Work on `CC(C)(Oc1ccc(Cl)c(C(F)(F)F)c1)C(=O)N[C@H]1C[C@H]2CC[C@@H](C1)N2c1ccc(C(=O)NCC(F)(F)F)cn1` [Example 186, 6-{3-endo-[(2-{[4-chloro-3-(trifluoromethyl)phenyl]oxy}-2-methylpropanoyl)amino]-8-azabicyclo[3.2.1]oct-8-yl}-N-(2,2,2-trifluoroethyl)pyridine-3-carboxamide] yielded an IC50 of less than 200 nM.
`CC(C)(Oc1ccc(Cl)cc1OC(F)(F)F)C(=O)NC1CC2CCC(C1)N2c1ccc(C(=O)NC2CC2(F)F)cn1` (stereo not drawn) [Example 394, 6-[3-endo-({2-[4-chloro-2-(trifluoromethoxy)phenoxy]-2-methylpropanoyl}amino)-8-azabicyclo[3.2.1]oct-8-yl]-N-(2,2-difluorocyclopropyl)pyridine-3-carboxamide] gave an IC50 of less than 200 nM.
Work on `CC(C)(Oc1ccc(Cl)cc1OC(F)(F)F)C(=O)N[C@H]1C[C@H]2CC[C@@H](C1)N2c1ccc(C(=O)NCC(F)(F)F)cn1` [Example 363, 6-[3-endo-({2-[4-chloro-2-(trifluoromethoxy)phenoxy]-2-methylpropanoyl}amino)-8-azabicyclo[3.2.1]oct-8-yl]-N-(2,2,2-trifluoroethyl)pyridine-3-carboxamide] yielded an IC50 of less than 200 nM.
`CC(C)(Oc1ccc(C(F)(F)F)cc1Cl)C(=O)N[C@H]1C[C@H]2CC[C@@H](C1)N2c1ccc(C(=O)NCC(F)(F)F)cn1` [Example 184, 6-{3-endo-[(2-{[2-chloro-4-(trifluoromethyl)phenyl]oxy}-2-methylpropanoyl)amino]-8-azabicyclo[3.2.1]oct-8-yl}-N-(2,2,2-trifluoroethyl)pyridine-3-carboxamide] gave an IC50 of less than 200 nM.
In the case of `CC(C)(Oc1ccc(F)c(Cl)c1Cl)C(=O)N[C@H]1C[C@H]2CC[C@@H](C1)N2c1ccc(S(C)(=O)=O)cn1` [Example 153, 2-[(2,3-dichloro-4-fluorophenyl)oxy]-2-methyl-N-{8-[5-(methylsulfonyl)pyridin-2-yl]-8-azabicyclo[3.2.1]oct-3-endo-yl}propanamide], the IC50 is reported as less than 200 nM.
`CC(C)(Oc1ccccc1)C(=O)N[C@H]1C[C@H]2CC[C@@H](C1)N2c1ccc(C(=O)NC2CC2)cn1` [Example 15, N-cyclopropyl-6-(3-endo-{[2-methyl-2-(phenyloxy)propanoyl]amino}-8-azabicyclo[3.2.1]oct-8-yl)pyridine-3-carboxamide] showed an IC50 of less than 200 nM.
`CC(C)(Oc1ccc(Cl)cc1Cl)C(=O)N[C@H]1C[C@H]2CC[C@@H](C1)N2c1ccc(S(C)(=O)=O)nc1` [Example 307, 2-[(2,4-dichlorophenyl)oxy]-2-methyl-N-{8-[6-(methylsulfonyl)pyridin-3-yl]-8-azabicyclo[3.2.1]oct-3-endo-yl}propanamide] was tested, and the IC50 was less than 200 nM.
In the case of `CC(C)(Oc1ccc(Cl)cc1Cl)C(=O)N[C@H]1C[C@H]2CC[C@@H](C1)N2c1ncc(C(=O)NCC(F)(F)F)cc1F` [Example 160, 6-[3-endo-({2-[(2,4-dichlorophenyl)oxy]-2-methylpropanoyl}amino)-8-azabicyclo[3.2.1]oct-8-yl]-5-fluoro-N-(2,2,2-trifluoroethyl)pyridine-3-carboxamide], the IC50 is reported as less than 200 nM.
For `CC(C)(Oc1cc(C(C)(C)O)c(Cl)cc1Cl)C(=O)N[C@H]1C[C@H]2CC[C@@H](C1)N2c1ccc(C(=O)NCC(F)F)cn1` [Example 429, 6-[3-endo-({2-[2,4-dichloro-5-(2-hydroxypropan-2-yl)phenoxy]-2-methylpropanoyl}amino)-8-azabicyclo[3.2.1]oct-8-yl]-N-(2,2-difluoroethyl)pyridine-3-carboxamide], the IC50 was less than 200 nM.
`N#Cc1ccnc(N2[C@@H]3CC[C@H]2C[C@@H](NC(=O)C2(c4ccc(Cl)cc4)CC2)C3)c1` [Example 18, 1-(4-chlorophenyl)-N-[8-(4-cyanopyridin-2-yl)-8-azabicyclo[3.2.1]oct-3-endo-yl]cyclopropanecarboxamide] gave an IC50 of less than 2000 nM.
Work on `CC(C)(Oc1ccc(-c2ccc(F)cc2)cc1Cl)C(=O)N[C@H]1C[C@H]2CC[C@@H](C1)N2c1ccc(C(N)=O)cn1` [Example 282, 6-[3-endo-({2-[(3-chloro-4′-fluorobiphenyl-4-yl)oxy]-2-methylpropanoyl}amino)-8-azabicyclo[3.2.1]oct-8-yl]pyridine-3-carboxamide] yielded an IC50 of less than 200 nM.
With `CC(C)(Oc1ccc(F)c(F)c1)C(=O)N[C@H]1C[C@H]2CC[C@@H](C1)N2c1ccc(S(C)(=O)=O)cn1` [Example 207, 2-[(3,4-difluorophenyl)oxy]-2-methyl-N-{8-[5-(methylsulfonyl)pyridin-2-yl]-8-azabicyclo[3.2.1]oct-3-endo-yl}propanamide] the IC50 was less than 2000 nM.
Work on `CC(C)(Oc1ccc(Cl)cc1Cl)C(=O)N[C@H]1C[C@H]2CC[C@@H](C1)N2c1ccc(C(=O)NCCCn2ccnc2)cn1` [Example 341, 6-(3-endo-{[2-(2,4-dichlorophenoxy)-2-methylpropanoyl]amino}-8-azabicyclo[3.2.1]oct-8-yl)-N-[3-(1h-imidazol-1-yl)propyl]pyridine-3-carboxamide] yielded an IC50 of less than 200 nM.
With `CC(C)(Oc1ccc(Cl)cc1C1CCCCC1)C(=O)N[C@H]1C[C@H]2CC[C@@H](C1)N2c1ccc(C(N)=O)cn1` [Example 285, 6-[3-endo-({2-[(4-chloro-2-cyclohexylphenyl)oxy]-2-methylpropanoyl}amino)-8-azabicyclo[3.2.1]oct-8-yl]pyridine-3-carboxamide] the IC50 was less than 200 nM.
For `CC(C)(Oc1cc(OCCO)c(Cl)cc1Cl)C(=O)N[C@H]1C[C@H]2CC[C@@H](C1)N2c1ccc(C(=O)NCC(F)F)cn1` [Example 402, 6-(3-endo-(2-(2,4-dichloro-5-(2-hydroxyethoxy)phenoxy)-2-methylpropanamido)-8-azabicyclo[3.2.1]octan-8-yl)-N-(2,2-difluoroethyl)nicotinamide], the IC50 was less than 200 nM.
`CC(C)(Oc1ccc(Cl)c(Cl)c1)C(=O)N[C@H]1C[C@H]2CC[C@@H](C1)N2c1ccc(C(=O)NC2CC2)cn1` [Example 42, N-cyclopropyl-6-[3-endo-({2-[(3,4-dichlorophenyl)oxy]-2-methylpropanoyl}amino)-8-azabicyclo[3.2.1]oct-8-yl]pyridine-3-carboxamide] gave an IC50 of less than 200 nM.
Compound `CC(C)(CO)NC(=O)c1ccc(N2[C@@H]3CC[C@H]2C[C@@H](NC(=O)C(C)(C)Oc2ccc(Cl)cc2Cl)C3)nc1` [Example 395, 6-(3-endo-{[2-(2,4-dichlorophenoxy)-2-methylpropanoyl]amino}-8-azabicyclo[3.2.1]oct-8-yl)-N-(1-hydroxy-2-methylpropan-2-yl)pyridine-3-carboxamide] has an IC50 of less than 200 nM.
For `CC(C)(Oc1ccc(F)cc1)C(=O)N[C@H]1C[C@H]2CC[C@@H](C1)N2c1ccc(S(N)(=O)=O)cn1` [Example 264, N-{8-[5-(aminosulfonyl)pyridin-2-yl]-8-azabicyclo[3.2.1]oct-3-endo-yl}-2-[(4-fluorophenyl)oxy]-2-methylpropanamide], the IC50 was less than 200 nM.
In the case of `Cc1ccc(OC(C)(C)C(=O)N[C@H]2C[C@H]3CC[C@@H](C2)N3c2ccc(S(C)(=O)=O)cc2)c(Cl)c1` [Example 214, 2-[(2-chloro-4-methylphenyl)oxy]-2-methyl-N-{8-[4-(methylsulfonyl)phenyl]-8-azabicyclo[3.2.1]oct-3-endo-yl}propanamide], the IC50 is reported as less than 200 nM.
In the case of `O=C(NC1CC1)c1ccc(N2[C@@H]3CC[C@H]2C[C@@H](NC(=O)C2(Oc4ccc(Cl)cc4)CC2)C3)nc1` [Example 64, 6-{3-endo-[({1-[(4-chlorophenyl)oxy]cyclopropyl}carbonyl)amino]-8-azabicyclo[3.2.1]oct-8-yl}-N-cyclopropylpyridine-3-carboxamide], the IC50 is reported as less than 200 nM.
`CC(C)(Oc1cc(OCC(=O)O)c(Cl)cc1Cl)C(=O)N[C@H]1C[C@H]2CC[C@@H](C1)N2c1ccc(C(=O)NCC(F)(F)F)cn1` [Example 413, 2-(2,4-dichloro-5-(2-methyl-1-oxo-1-(8-(5-(2,2,2-trifluoroethylcarbamoyl)pyridin-2-yl)-8-azabicyclo[3.2.1]octan-3-endo-ylamino)propan-2-yloxy)phenoxy)acetic acid] was tested, and the IC50 was less than 200 nM.
